Data: patent publication US20250353841A1 (BIOGEN MA INC., priority 2022, published 2025)

Tested on: mutant Huntington (HTT) protein
Assay: HTT Mutant HTRF iPSC assay (mHTT protein lowering)
Format: cell-based
Details: human iPSC derived from a HTT patient with a poly-Q49 mutation

Compound	IC50
Cc1cn2nc(-c3cc(F)c4nc(C5CCNC(C)C5)cn4c3)cc(C)c2n1 (centres unmarked) [Compound 60, 6-(8-fluoro-2-(2-methylpiperidin-4-yl)imidazo[1,2-a]pyridin-6-yl)-2,8-dimethylimidazo[1,2-b]pyridazine]	< 100 nM
Cc1cn2nc(-c3cc(F)c4nn(CC5CNC5)nc4c3)cc(C)c2n1 [Compound 383, 2-(azetidin-3-ylmethyl)-6-(2,8-dimethylimidazo[1,2-b]pyridazin-6-yl)-4-fluoro-2H-benzo[d][1,2,3]triazole]	100 to 1000 nM
Fc1cc(-c2ccc3nc(C(F)F)cn3n2)cc2cn(C3CCNCC3)nc12 [Compound 352, 2-(difluoromethyl)-6-(7-fluoro-2-(piperidin-4-yl)-2H-indazol-5-yl)imidazo[1,2-b]pyridazine]	1000 to 9000 nM
Cc1cn2nc(-c3cc(F)c4nc(C5CNC5)cn4c3)cc(C)c2n1 [Compound 64]	1000 to 9000 nM
Cc1cn2nc(-c3cc(F)c4nc([C@H]5[C@@H]6CN(C7CCC7)C[C@@H]65)cn4c3)cc(C)c2n1 [Compound 211, 6-(2-((1R,5S,6r)-3-cyclobutyl-3-azabicyclo[3.1.0]hexan-6-yl)-8-fluoroimidazo[1,2-a]pyridin-6-yl)-2,8-dimethylimidazo[1,2-b]pyridazine]	< 100 nM
Cc1cn2nc(-c3cc(F)c4nc(C56CC(N(C)C7CC7)(C5)C6)cn4c3)cc(C)c2n1 [Compound 208, N-cyclopropyl-3-(6-(2,8-dimethylimidazo[1,2-b]pyridazin-6-yl)-8-fluoroimidazo[1,2-a]pyridin-2-yl)-N-methylbicyclo[1.1.1] pentan-1-amine]	100 to 1000 nM
CN[C@H]1CC[C@H](c2cn3cc(-c4cc(F)c5nn(C)cc5c4)cc(F)c3n2)CC1 [Compound 170, (1r,4r)-4-(8-fluoro-6-(7-fluoro-2-methyl-2H-indazol-5-yl)imidazo[1,2-a]pyridin-2-yl)-N-methylcyclohexan-1-amine]	< 100 nM
COc1cc(-c2cc(C)c3nc(C)cn3n2)cn2cc([C@H]3[C@@H]4CN(C)C[C@@H]43)nc12 [Compound 539, 6-[8-methoxy-2-[(1S,5R)-3-methyl-3-azabicyclo[3.1.0]hexan-6-yl]imidazo[1,2-a]pyridin-6-yl]-2,8-dimethyl-imidazo[1,2-b]pyridazine]	< 100 nM
Cc1cn2nc(-c3cc(F)c4nc(NC(=O)C5CN(C6CCC6)C5)cn4c3)cc(C)c2n1 [Compound 263, 1-cyclobutyl-N-(6-(2,8-dimethylimidazo[1,2-b]pyridazin-6-yl)-8-fluoroimidazo[1,2-a]pyridin-2-yl)azetidine-3-carboxamide]	< 100 nM
Cc1cn2nc(-c3cc(F)c4[nH]c(C5CCNC(C)(C)C5)nc4c3)cc(C)c2n1 (centres unmarked) [Compound 419]	100 to 1000 nM
Cc1cn2nc(-c3cc(F)c4nc(NC5CCNC(C)(C)C5)oc4c3)cc(C)c2n1 (centres unmarked) [Compound 485, 6-(2,8-dimethylimidazo[1,2-b]pyridazin-6-yl)-N-(2,2-dimethylpiperidin-4-yl)-4-fluorobenzo[d]oxazol-2-amine]	< 100 nM
Cc1cn2nc(-c3cc(F)c4nc(C5CCC(N(C)C)CC5)nn4c3)cc(C)c2n1 (centres unmarked) [Compound 447, 4-(6-(2,8-dimethylimidazo[1,2-b]pyridazin-6-yl)-8-fluoro-[1,2,4]triazolo[1,5-a]pyridin-2-yl)-N,N-dimethylcyclohexan-1-amine]	100 to 1000 nM
Cc1cn2nc(-c3cc(F)c4[nH]c(C5CCN(CC6CC6)CC5)nc4c3)cc(C)c2n1 [Compound 422, 6-(2-(1-(cyclopropylmethyl)piperidin-4-yl)-7-fluoro-1H-benzo[d]imidazol-5-yl)-2,8-dimethylimidazo[1,2-b]pyridazine]	< 100 nM
Cc1cn2nc(-c3cc(F)c4nc(C5CCN(C6CCOC6)CC5)cn4c3)cc(C)c2n1 (centres unmarked) [Compound 192, 6-(8-fluoro-2-(1-(tetrahydrofuran-3-yl)piperidin-4-yl)imidazo[1,2-a]pyridin-6-yl)-2,8-dimethylimidazo[1,2-b]pyridazine]	< 100 nM
